Source: paper PMC6471062, “Suppression of the Ubiquitin Pathway by Small Molecule Binding to Ubiquitin Enhances Doxorubicin Sensitivity of the Cancer Cells” (Molecules, 2019)

What was measured:
ubiquitin = ubiquitin (Homo sapiens, UniProt P0CG47); assay: Intrinsic fluorescence quenching assay of ubiquitin; settings: 50 µM ubiquitin, 0–500 µM compound, ex 274 nm / em 305 nm; read-out: Kd, dissociation constant upon binding to ubiquitin
Experimental: Intrinsic fluorescence quenching assays were performed as described previously. Briefly, intrinsic fluorescence quenching of ubiquitin by indicated compounds was observed by measuring the excitation and emission wavelength at 274 nm and 305 nm respectively of the mixture of 50 µM purified ubiquitin and 0–500 µM compound. Data were fitted to nonlinear regression curves with the equation described previously. F = −∆ε·[PC] + Fo(3) b = (Po + Co + Kd)(4) c = Po·Co(5) [PC] = [b − (b^2 − 4·c)^1/2]/2(6) where Fo and F are the normalized fluorescence intensity of the mixture of ubiquitin without the compound and with different concentrations of the compound, respectively. ∆ε is a difference in the extinction coefficient of the compound between their free and complex forms. [PC] is the concentration of protein/compound complex. Po and Co are the added concentration of ubiquitin and the compound, respectively in each experiment. Kd is the dissociation constant.

USP5 (Homo sapiens) = assay: Deubiquitination assay, cleavage of GST-Ubiquitin-HA by USP5 (SDS-PAGE band intensity); assay type: biochemical
Chain of USP5 (Homo sapiens) (P45974 2-858, other chains not shown): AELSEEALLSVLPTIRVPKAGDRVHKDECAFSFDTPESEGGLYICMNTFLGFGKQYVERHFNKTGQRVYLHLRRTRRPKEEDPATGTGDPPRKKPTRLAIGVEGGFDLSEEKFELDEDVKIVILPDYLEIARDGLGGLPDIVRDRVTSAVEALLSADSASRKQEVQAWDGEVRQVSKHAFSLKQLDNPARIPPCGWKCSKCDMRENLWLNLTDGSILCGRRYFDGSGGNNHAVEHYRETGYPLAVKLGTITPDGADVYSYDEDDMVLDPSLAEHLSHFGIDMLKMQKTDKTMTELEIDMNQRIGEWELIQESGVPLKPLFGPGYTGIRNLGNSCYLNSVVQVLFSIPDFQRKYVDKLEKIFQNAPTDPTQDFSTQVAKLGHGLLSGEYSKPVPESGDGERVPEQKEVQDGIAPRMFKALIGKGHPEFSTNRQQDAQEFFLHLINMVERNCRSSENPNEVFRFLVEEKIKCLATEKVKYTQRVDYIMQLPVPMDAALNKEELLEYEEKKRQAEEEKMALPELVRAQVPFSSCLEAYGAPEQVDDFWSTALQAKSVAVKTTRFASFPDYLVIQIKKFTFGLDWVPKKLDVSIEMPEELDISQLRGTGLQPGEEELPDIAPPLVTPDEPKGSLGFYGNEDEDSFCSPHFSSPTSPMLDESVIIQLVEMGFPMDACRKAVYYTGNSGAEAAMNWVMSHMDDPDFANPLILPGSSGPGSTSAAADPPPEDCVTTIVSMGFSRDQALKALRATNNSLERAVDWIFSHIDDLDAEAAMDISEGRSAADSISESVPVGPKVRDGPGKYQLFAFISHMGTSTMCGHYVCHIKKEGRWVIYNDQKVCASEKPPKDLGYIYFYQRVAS
Experimental: (§1) For in vitro ubiquitination assays, 500 µM of ubiquitin was used for each ubiquitination reaction as described previously, in the absence or presence of 50–500 µM of CR. […] The generation of GST-ubiquitin from GST-Ubiquitin-HA as the mobility shifts were analyzed on 12.5% SDS-PAGE visualized by Coomassie blue staining. Band intensities were quantified by ImageJ [55] and used to generate the IC50 curves (log inhibitor vs. normalized response with variable slope) by GraphPad Prism version 6.0 for Windows (GraphPad Software, San Diego, CA, USA, www.graphpad.com).

UCHL1 (Homo sapiens) = assay: Deubiquitination assay, cleavage of GST-Ubiquitin-HA by UCHL1 (SDS-PAGE band intensity); assay type: biochemical
Chain of UCHL1 (Homo sapiens) (P09936 whole entry, other chains not shown): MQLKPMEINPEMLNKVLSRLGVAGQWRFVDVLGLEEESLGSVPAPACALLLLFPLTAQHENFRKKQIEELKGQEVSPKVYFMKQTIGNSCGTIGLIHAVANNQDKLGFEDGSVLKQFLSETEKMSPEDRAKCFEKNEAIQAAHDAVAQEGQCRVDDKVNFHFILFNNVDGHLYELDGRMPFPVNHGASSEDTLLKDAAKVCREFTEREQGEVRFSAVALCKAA
Experimental: as §1

E2-25K = assay: In vitro K48 polyubiquitination reaction with E2-25K; assay type: biochemical; settings: purified E2-25K, increasing CR (50–500 µM), 500 µM ubiquitin, 37 °C
Experimental: Figure 5 CR inhibits K48- and K63- polyubiquitination in vitro. (a) Interacting surface of ubiquitin when complex with E2-25K and Ubc13 compared with the surface used for CR binding. (b,c) CR inhibits K48- (b) and K63-ubiquitinations (c). First, mono ubiquitin was mixed with UBA1, E2-25K or complex Mms2/Ubc13, and 0–500 µM CR in the presence or absence of ATP regeneration system. Then the mixture was incubated at 37 °C for […]. The reaction was stopped by adding 5X SDS loading buffer and the results were analyzed with 15% SDS-PAGE.
as §1, with “CR. The reactions were incubated at 37 °C for 4 h and 16 h for K63- and K48 polyubiquitination respectively. The reaction was terminated by adding 5X SDS sampling buffer and results were subjected to 15% SDS-PAGE followed by Coomassie Blue staining for analyses.” for “CR.”

USP4 = assay: TOP flash luciferase reporter assay of β-catenin with USP4; assay type: cell-based; settings: HEK293T, CR 0–30 μM, 24 h
Experimental: Luciferase reporter assays were performed as described previously. Briefly, HEK293T cells were seeded in 12-well plates at 1 × 10^5 cells per well and incubated for 24 h before being transfected with either SRT-USP4 or Myc-β-catenin expression plasmids, along with the T cell factor (TCF) reporter plasmid (TOP flash) driving the expression of the luciferase gene. Equal amounts of total DNA in transfections were maintained by adding the control plasmids in each transfection experiment. 24 h post-transfection, cells were treated with CR (0–30 µM) for 24 h. After that, cells were harvested for luciferase reporter assays. Luciferase activity was measured according to the manufacturer’s instructions (Promega, Madison, WI, USA). page 5: (a) (b) Figure S5. CR inhibits USP4 deubiquitinase activity on its substrate, ß-catenin on the TOP flash reporter activity. (a) Cells were co-transfected with either SRT-USP4 or Myc‐β‐catenin expression plasmids, and TOP flash reporter plasmid containing a β‐catenin‐induced TCF reporter. 24-h post-transfection, CR was added at increasing concentrations (0 – 30 µM) and the cells were further cultured for 24 h. A top-flash activity assay of ß-catenin was conducted and (b) Western blot analysis with the indicated antibody was performed in parallel. […]

H1299 cells = assay: Luminogenic caspase activity assay (Caspase Glo 3/7), H1299; assay type: cell-based; settings: 10 µM CR or 5 µM NSC697923 with Dox
Experimental: Figure 7 CR enhances Dox sensitivity of cancer cells. (a,b) Enhancement of Dox-induced apoptosis of cancer cells by CR treatment. Dox–induced apoptosis of H1299 (a) and HCT116 (b) was quantified by colorimetric cell viability after treating 10 µM CR for 12 h followed by 12h treatment of Dox (0.0–5.0 µM). […] Caspase activity was quantified by luminogenic caspase activity assay. […] All error bars represent the standard deviation from at least four independent experiments. Statistical significance was calculated by the Student’s t-test (** p < 0.01, *** p < 0.001).
Cell viability assays were performed as described previously. For the caspase assays, the media were removed, and cells were lysed in 200 µL lysis buffer containing 50 µL Caspase Glo 3/7 solution and incubated for 15 min. Results were observed by measuring the luminescence signal using KOMM-Nr (Berthold Technologies, Bad Wildbad, Germany) and normalized with the total protein concentration measured by the Bradford assay. […]
Figure S8. NSC697923 enhances Dox sensitivity of cancer cells. (a, b) Effect of NSC697923 to cancer cells’ viability in Dox treatment . Dox–induced cell death of H1299 ( a) and HCT116 ( b) was quantified by colorimetric cell viability assay after treating 5 µM NSC697923 for 12 h followed by 12h treatment of Dox (0.0 […]
NSC697923. Caspase activity was quantified by luminogenic caspase activity assay. […]

[1] = Cell membrane permeability (inferred from intracellular action); settings: in contrast to CSB6B; inferred from intracellular effect on ubiquitination

Nc1c(/N=N/c2ccc(-c3ccc(/N=N/c4cc(S(=O)(=O)O)c5ccccc5c4N)cc3)cc2)cc(S(=O)(=O)O)c2ccccc12 [CR, Congo red]
Kd (ubiquitin): 14.4 ± 1.27 µM
IC50 (USP5 (Homo sapiens)): 13.4 ± 2.64 µM
IC50 (UCHL1 (Homo sapiens)): 26.9 ± 2.99 µM
Inhibition of K48 polyubiquitination (E2-25K): effectively inhibited by CR in a dose-dependent manner
Effect on USP4-enhanced β-catenin transcriptional activity (TOP flash) (USP4): this enhancement was antagonized by CR treatment
Effect on caspase activity of Dox-treated H1299 cells (H1299 cells): Enhanced caspase activity
Cell permeability [1]: better cell permeability
